Data reported in PubChem BioAssay AID1963979 (Molecular Pharmacology Branch, DTP, NCI, 2024).
Values joined by “and” are separate entries in the source; they are usually repeats but may differ in a detail not shown here. Equal values may be shown once.

System: 361931-004-R-J1-PDC multicell spheroid viability
Experiment: Anticancer human tumor 361931-004-R-J1-PDC patient-derived colon adenocarcinoma cell line growth inhibition [PI3K]
Conditions: for viability, T/C: stronger effect = lower value
Excerpt: Combinatorial screen of targeted agents with the PI3K inhibitors inavolisib, alpelisib, duvelisib, and copanlisib in multi-cell type tumor spheroids
A high-throughput screen of multi-cell type tumor spheroids was designed to identify active combinations of targeted small molecules and PI3K pathway inhibitors. Complex spheroids include a stromal component modeled by human endothelial cells (HUVEC) and fibroblasts modeled by human mesenchymal stem cells (MSCs). The concentration ranges selected for each drug and investigational agent were based upon clinically achievable concentrations if the clinical Cmax of the agent was known.
Compounds. The drugs and investigational agents: inavolisib (NSC800729), alpelisib (NSC765974), duvelisib (NSC772469), copanlisib (NSC816437), ipatasertib (NSC767898), afuresertib (NSC778305), talazoparib (NSC767125), sapanisertib (NSC764658), selumetinib (NSC741078), tovorafenib (DAY101, NSC766906), vemurafenib (NSC761431), ravoxertinib (NSC781343), sotorasib (NSC818433), MRTX1133 (NSC 836407), abemaciclib (NSC 768073), palbociclib (NSC758247), venetoclax (NSC 766270), SY5609 (NSC837396), enzalutamide (NSC755605), and darolutamide (NSC825331), were obtained from the National Cancer Institute (NCI) Developmental Therapeutics Program Chemical Repository. The FDA-approved anticancer drug set is available from the NCI Developmental Therapeutics Program. […] The stock solutions were prepared in dimethyl sulfoxide (DMSO, Sigma-Aldrich, St. Louis, MO, cat. D2650) at 800-fold the tested concentration and stored at -70 degrees C prior to their use. All drugs and investigational agents were tested over a range starting from a high concentration at or near the clinical Cmax and decreasing in half-log increments. If the clinical Cmax for an agent had not been determined, the highest concentration tested was 10 microM.
Cell Culture. All cells were maintained in an incubator at 37 degrees C and 5% CO2 with 95% humidity. The PDC lines were cultured according to standard operating procedures established by the NCI PDMR (https://pdmr.cancer.gov/sops/default.htm). All PDCs were thawed and cultured in Matrigel-coated flasks prepared with a working solution of 1X Ham's F-12 nutrient mix, without supplementation (Invitrogen, Waltham, MA, cat. 11765054), 100 U/mL penicillin-streptomycin (Invitrogen, cat. 15140122), and 2.5% Matrigel (Corning Inc., Corning, NY, cat. 354248) for the first three passages. The 354836-022-R-J1-PDC, 475296-252-R-J1-PDC, and 997726-040-R-J2-PDC lines were cultured in 6A media, which includes advanced DMEM/F-12 (Thermo Fisher Scientific, cat. 12634028), 10 mM HEPES (Thermo Fisher Scientific, cat. 15630080), 1X GlutaMAX supplement (Thermo Fisher Scientific, cat. 35050061), 0.1 mg/mL primocin (InvivoGen, San Diego, CA, cat. ant-pm-2), 10% defined fetal bovine serum, heat inactivated (HyClone Laboratories Inc., Logan, UT, cat. SH30070.03HI), 50% L-WRN conditioned media (ATCC, cat. CRL-3276), 1.25 mM N-Acetyl-L-cysteine (Sigma-Aldrich, cat. A9165), 10 mM nicotinamide (Sigma-Aldrich, cat. N0636), 1X B-27 supplement (Thermo Fisher Scientific, cat. 17504044), 1X N-2 supplement (Thermo Fisher Scientific, cat. 17502048), and 10 microM Y-27632 dihydrochloride (Tocris Bioscience, Bristol, United Kingdom, cat. 1254). The 624824-186-R-J2-PDC line was cultured in 6C/Colon 1B media, which includes all 6A media components plus 50 ng/mL human EGF recombinant protein (Thermo Fisher Scientific, cat. PHG0311). […]
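Note: spheroids exposed to agents for seven days before readout.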

## C#Cc1c(F)ccc2cc(O)cc(-c3ncc4c(N5CC6CCC(C5)N6)nc(OCC56CCCN5CC(F)C6)nc4c3F)c12 (stereo unspecified)
Compound 0.0316 µM
  viability, T/C: 104% [middle of 4 runs]
Compound 0.1 µM
  viability, T/C: 106% [middle of 4 runs]
Compound 0.316 µM
  viability, T/C: 100% [middle of 4 runs]
Compound 1 µM
  viability, T/C: 104% [middle of 4 runs]
Compound 3.16 µM
  viability, T/C: 96.7% [middle of 4 runs]
Curve of compound
  IC50: > 10 µM

## C=CC(=O)N1CCN(c2nc(=O)n(-c3c(C)ccnc3C(C)C)c3nc(-c4c(O)cccc4F)c(F)cc23)C(C)C1 (stereo unspecified)
Compound 0.0316 µM
  viability, T/C: 99.5% [middle of 4 runs]
Compound 0.1 µM
  viability, T/C: 95.4% [middle of 4 runs]
Compound 0.316 µM
  viability, T/C: 105% [middle of 4 runs]
Compound 1 µM
  viability, T/C: 103% [middle of 4 runs]
Compound 3.16 µM
  viability, T/C: 100% [middle of 4 runs]
Compound 10 µM
  viability, T/C: 99.2% [middle of 4 runs]
Curve of compound
  IC50: > 10 µM

## CC(Cn1ccc(-c2ccc(C#N)c(Cl)c2)n1)NC(=O)c1cc(C(C)O)[nH]n1 (stereo unspecified)
Compound 0.0316 µM
  viability, T/C: 104% [middle of 4 runs]
Compound 0.1 µM
  viability, T/C: 97.2% [middle of 4 runs]
Compound 0.316 µM
  viability, T/C: 105% [middle of 4 runs]
Compound 1 µM
  viability, T/C: 104% [middle of 4 runs]
Compound 3.16 µM
  viability, T/C: 102% [middle of 4 runs]
Compound 10 µM
  viability, T/C: 106% [middle of 4 runs]
Curve of compound
  IC50: > 10 µM

## CC1(C)CCC(CN2CCN(c3ccc(C(=O)NS(=O)(=O)c4ccc(NCC5CCOCC5)c([N+](=O)[O-])c4)c(Oc4cnc5[nH]ccc5c4)c3)CC2)=C(c2ccc(Cl)cc2)C1
Compound 0.0316 µM
  viability, T/C: 100% [middle of 4 runs]
Compound 0.1 µM
  viability, T/C: 101% [middle of 4 runs]
Compound 0.316 µM
  viability, T/C: 101% [middle of 4 runs]
Compound 1 µM
  viability, T/C: 102% [middle of 4 runs]
Compound 10 µM
  viability, T/C: 3.75% [middle of 4 runs]
Curve of compound
  IC50: 4.94 µM and 4.18 µM and 5.61 µM

## CC1(C)CCC(Nc2ncc(C(F)(F)F)c(-c3c[nH]c4c(P(C)(C)=O)c(C#N)ccc34)n2)CN1 (stereo unspecified)
Compound 0.1 µM
  viability, T/C: 94.6% [middle of 4 runs]
Compound 10 µM
  viability, T/C: 12.9% [middle of 4 runs]
Curve of compound
  IC50: 5.63 µM [middle of 4 runs]

## CCCS(=O)(=O)Nc1ccc(F)c(C(=O)c2c[nH]c3ncc(-c4ccc(Cl)cc4)cc23)c1F
Compound 0.0316 µM
  viability, T/C: 103% (2×) and 94% and 108%
Compound 0.1 µM
  viability, T/C: 103% and 101% (2×) and 98.4%
Compound 0.316 µM
  viability, T/C: 97.1% [middle of 4 runs]
Compound 1 µM
  viability, T/C: 92.3% [middle of 4 runs]
Compound 3.16 µM
  viability, T/C: 82% [middle of 4 runs]
Compound 10 µM
  viability, T/C: 8.31% [middle of 4 runs]
Curve of compound
  IC50: 5.1 µM [middle of 4 runs]

## CNC(=O)c1ccc(N2C(=S)N(c3ccc(C#N)c(C(F)(F)F)c3)C(=O)C2(C)C)cc1F
Compound 0.0316 µM
  viability, T/C: 101% [middle of 4 runs]
Compound 0.1 µM
  viability, T/C: 101% [middle of 4 runs]
Compound 0.316 µM
  viability, T/C: 104% [middle of 4 runs]
Compound 1 µM
  viability, T/C: 110% and 103% (2×) and 102%
Compound 3.16 µM
  viability, T/C: 98.6% [middle of 4 runs]
Compound 10 µM
  viability, T/C: 92.4% [middle of 4 runs]
Curve of compound
  IC50: > 10 µM

## Cn1ncc(Cl)c1-c1cc(C(=O)NC(CN)Cc2cccc(F)c2)sc1Cl (stereo unspecified)
Compound 0.0316 µM
  viability, T/C: 94.2% [middle of 4 runs]
Compound 0.1 µM
  viability, T/C: 97.2% [middle of 4 runs]
Compound 3.16 µM
  viability, T/C: 46.3% [middle of 4 runs]
Compound 10 µM
  viability, T/C: 29.7% [middle of 4 runs]

## Cn1nccc1Nc1nccc(-c2ccn(C(CO)c3ccc(Cl)c(F)c3)c(=O)c2)n1 (stereo unspecified)
Compound 0.0316 µM
  viability, T/C: 106% [middle of 4 runs]
Compound 0.1 µM
  viability, T/C: 92.5% [middle of 4 runs]
Compound 0.316 µM
  viability, T/C: 97% [middle of 4 runs]
Compound 1 µM
  viability, T/C: 95.2% [middle of 4 runs]
Compound 3.16 µM
  viability, T/C: 78.3% [middle of 4 runs]
Compound 10 µM
  viability, T/C: 61.8% [middle of 4 runs]
Curve of compound
  IC50: > 10 µM and 9.47 µM

## Cn1cnc2c(F)c(Nc3ccc(Br)cc3Cl)c(C(=O)NOCCO)cc21 + CC(Nc1ccc2c(c1)OCCn1cc(N3C(=O)OCC3C(F)F)nc1-2)C(N)=O
Curve of first compound, second compound 0.00316 µM
  IC50: 2.59 µM
Curve of first compound, second compound 0.01 µM
  IC50: > 3 µM
Curve of first compound, second compound 0.0316 µM
  IC50: 2.11 µM
Curve of first compound, second compound 0.1 µM
  IC50: 1.14 µM
Curve of first compound, second compound 0.316 µM
  IC50: 0.556 µM
Curve of first compound, second compound 1 µM
  IC50: 0.158 µM
Second compound 0.00316 µM, first compound 0.00949 µM
  viability, T/C: 91.9%
Second compound 0.00316 µM, first compound 0.03 µM
  viability, T/C: 94.6%
Second compound 0.00316 µM, first compound 0.0949 µM
  viability, T/C: 80.4%
Second compound 0.00316 µM, first compound 0.3 µM
  viability, T/C: 80.1%
Second compound 0.00316 µM, first compound 0.949 µM
  viability, T/C: 75%
Second compound 0.00316 µM, first compound 3 µM
  viability, T/C: 45.5%
Second compound 0.01 µM, first compound 0.00949 µM
  viability, T/C: 99.4%
Second compound 0.01 µM, first compound 0.03 µM
  viability, T/C: 92.8%
Second compound 0.01 µM, first compound 0.0949 µM
  viability, T/C: 81.1%
Second compound 0.01 µM, first compound 0.3 µM
  viability, T/C: 72.4%
Second compound 0.01 µM, first compound 0.949 µM
  viability, T/C: 63.8%
Second compound 0.01 µM, first compound 3 µM
  viability, T/C: 51.9%
Second compound 0.0316 µM, first compound 0.00949 µM
  viability, T/C: 96.2%
Second compound 0.0316 µM, first compound 0.03 µM
  viability, T/C: 92.9%
Second compound 0.0316 µM, first compound 0.0949 µM
  viability, T/C: 83.8%
Second compound 0.0316 µM, first compound 0.3 µM
  viability, T/C: 70.4%
Second compound 0.0316 µM, first compound 0.949 µM
  viability, T/C: 62%
Second compound 0.0316 µM, first compound 3 µM
  viability, T/C: 45%
Second compound 0.1 µM, first compound 0.00949 µM
  viability, T/C: 90.8%
Second compound 0.1 µM, first compound 0.03 µM
  viability, T/C: 83.3%
Second compound 0.1 µM, first compound 0.0949 µM
  viability, T/C: 76.1%
Second compound 0.1 µM, first compound 0.3 µM
  viability, T/C: 73.2%
Second compound 0.1 µM, first compound 0.949 µM
  viability, T/C: 53.8%
Second compound 0.1 µM, first compound 3 µM
  viability, T/C: 28.5%
Second compound 0.316 µM, first compound 0.00949 µM
  viability, T/C: 86%
Second compound 0.316 µM, first compound 0.03 µM
  viability, T/C: 82.8%
Second compound 0.316 µM, first compound 0.0949 µM
  viability, T/C: 63.9%
Second compound 0.316 µM, first compound 0.3 µM
  viability, T/C: 62.4%
Second compound 0.316 µM, first compound 0.949 µM
  viability, T/C: 43.8%
Second compound 0.316 µM, first compound 3 µM
  viability, T/C: 14.7%
Second compound 1 µM, first compound 0.00949 µM
  viability, T/C: 72.8%
Second compound 1 µM, first compound 0.03 µM
  viability, T/C: 57.3%
Second compound 1 µM, first compound 0.0949 µM
  viability, T/C: 57.1%
Second compound 1 µM, first compound 0.3 µM
  viability, T/C: 46.4%
Second compound 1 µM, first compound 0.949 µM
  viability, T/C: 26.2%
Second compound 1 µM, first compound 3 µM
  viability, T/C: 8.6%
